# The source made the active and inactive calls.
# Tests used:
# [1] = target: T1, Methionyl-tRNA synthetase, putative (Trypanosoma brucei brucei, UniProt Q38C91); format: functional, Trypanosoma brucei brucei strain 927/4 GUTat10.1
# T1 sequence (Q38C91 whole entry): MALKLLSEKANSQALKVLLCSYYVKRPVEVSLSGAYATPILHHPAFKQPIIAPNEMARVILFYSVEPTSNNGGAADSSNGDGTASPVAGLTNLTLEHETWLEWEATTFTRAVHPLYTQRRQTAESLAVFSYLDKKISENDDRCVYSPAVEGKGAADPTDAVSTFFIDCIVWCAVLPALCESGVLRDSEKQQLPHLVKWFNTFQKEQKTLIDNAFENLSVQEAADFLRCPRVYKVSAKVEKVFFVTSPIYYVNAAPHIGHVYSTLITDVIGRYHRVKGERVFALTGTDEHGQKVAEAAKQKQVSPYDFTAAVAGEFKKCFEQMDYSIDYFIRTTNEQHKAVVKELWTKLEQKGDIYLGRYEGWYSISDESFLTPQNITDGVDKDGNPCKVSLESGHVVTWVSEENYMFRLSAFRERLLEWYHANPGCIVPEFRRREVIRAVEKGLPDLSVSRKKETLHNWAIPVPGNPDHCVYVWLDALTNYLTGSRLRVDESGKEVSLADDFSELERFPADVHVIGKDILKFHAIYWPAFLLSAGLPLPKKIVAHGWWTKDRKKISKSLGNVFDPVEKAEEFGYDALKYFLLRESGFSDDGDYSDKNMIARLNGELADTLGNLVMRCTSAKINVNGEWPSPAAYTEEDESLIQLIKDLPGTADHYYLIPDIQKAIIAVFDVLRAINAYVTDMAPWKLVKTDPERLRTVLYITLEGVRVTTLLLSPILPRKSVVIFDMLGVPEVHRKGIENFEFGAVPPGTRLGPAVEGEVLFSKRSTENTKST
# [2] = target: T1, Methionyl-tRNA synthetase, putative; format: functional, Trypanosoma brucei brucei strain 927/4 GUTat10.1; remark: listed apart in the source
# [3] = Counterscreen for inhibitors of Trypanosoma brucei methionyl tRNA synthetase (MetRS): Luminescence-based cell-based high throughput dose response assay to identify compounds that are cytotoxic to Jurkat human T lymphocyte cells.; format: functional
# Protein Wnt-3a = Protein Wnt-3a (Mus musculus, UniProt P27467); assay: Wnt3a-driven reporter signaling inhibition, dose response, selectivity assay for Gli-SUFU antagonist project, Wnt-LIGHT cells, luminescence (AID 651570); format: functional; conditions: read-out: IC50_Mean;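 note: Wnt-LIGHT reporter cells stimulated with conditioned medium from Wnt3a-producing cells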
# [4] = inhibitors of intracellular T. cruzi replication, confirmation, NIH3T3 host cells, beta-gal luminescence (AID 2044); format: functional, cell-based;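 note: intracellular parasites grown in NIH/3T3 mouse fibroblasts as host cells; luminescent beta-galactosidase reporter signal from transgenic T. cruzi replicating inside host cells; inhibitors lower the luminescence signal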
# [5] = cytotoxicity toward NIH3T3 fibroblasts, dose response, counter-screen, cell-based, ATP luminescence, mouse fibroblasts (AID 2010); format: functional;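 note: cells exposed to compound for about 90 hours before reading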
# [6] = target: T2, Corticotropin-releasing factor receptor 2/Corticotropin-releasing factor-binding protein (Homo sapiens, UniProt P24387+Q13324); assay: activators of CRF receptor 2 with binding protein – uHTS hits, confirmation (AID 602473); format: functional; conditions: read-out: EC50_Mean
# T2 sequence (Q13324 whole entry): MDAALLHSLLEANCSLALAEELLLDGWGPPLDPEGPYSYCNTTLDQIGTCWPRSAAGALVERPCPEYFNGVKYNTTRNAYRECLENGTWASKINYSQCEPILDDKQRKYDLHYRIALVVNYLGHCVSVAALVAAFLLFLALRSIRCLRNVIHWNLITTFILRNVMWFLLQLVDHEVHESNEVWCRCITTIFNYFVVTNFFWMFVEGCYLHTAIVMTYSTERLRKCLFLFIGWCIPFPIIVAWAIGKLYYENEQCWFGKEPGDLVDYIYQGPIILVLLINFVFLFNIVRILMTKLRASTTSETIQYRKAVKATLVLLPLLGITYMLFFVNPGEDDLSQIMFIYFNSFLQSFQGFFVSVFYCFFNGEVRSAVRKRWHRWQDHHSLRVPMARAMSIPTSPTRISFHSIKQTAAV
# T2 sequence (P24387 whole entry): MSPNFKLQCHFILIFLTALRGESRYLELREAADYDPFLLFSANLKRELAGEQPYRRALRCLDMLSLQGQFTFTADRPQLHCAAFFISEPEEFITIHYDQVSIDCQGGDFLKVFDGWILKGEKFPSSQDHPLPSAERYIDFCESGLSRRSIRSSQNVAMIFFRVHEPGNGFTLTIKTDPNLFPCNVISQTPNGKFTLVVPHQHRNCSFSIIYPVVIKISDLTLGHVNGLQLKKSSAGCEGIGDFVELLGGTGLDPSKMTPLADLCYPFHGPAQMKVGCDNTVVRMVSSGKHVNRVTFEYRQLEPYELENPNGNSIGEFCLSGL
# [7] = target: T2, Corticotropin-releasing factor receptor 2/Corticotropin-releasing factor-binding protein; assay: Dose Response confirmation of uHTS hits for small molecule antagonists of the CRF-binding protein and CRF-R2 receptor complex.; format: functional; conditions: read-out: IC50_Mean
# [8] = target: T3, Calpain-2 catalytic subunit (Sus scrofa, UniProt P43367); assay: pig calpain II inhibitor potency, dose response, biochemical, fluorogenic peptide substrate (AID 1420); format: functional
# T3 sequence (P43367 whole entry): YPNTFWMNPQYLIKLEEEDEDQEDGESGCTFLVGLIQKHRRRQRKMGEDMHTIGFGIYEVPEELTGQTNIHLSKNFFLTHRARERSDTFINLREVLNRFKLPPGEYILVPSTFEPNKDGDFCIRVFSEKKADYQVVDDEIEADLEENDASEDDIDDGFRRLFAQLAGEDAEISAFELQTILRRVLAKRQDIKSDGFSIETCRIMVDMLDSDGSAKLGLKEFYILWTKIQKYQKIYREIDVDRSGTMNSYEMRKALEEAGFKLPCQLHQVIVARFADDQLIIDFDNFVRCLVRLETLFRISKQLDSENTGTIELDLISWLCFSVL
# [9] = CRF-BP/CRF-R2 complex antagonists, dose response, cell-based, uHTS hits, 384-well (AID 651639); format: functional, Homo sapiens; conditions: read-out: IC50_Mean
# [10] = target: Glucose-6-phosphate 1-dehydrogenase (Homo sapiens, UniProt P11413); assay: human G6PD enzyme inhibitors, dose response, selectivity assay for P. falciparum G6PD inhibitor project, biochemical, fluorescence (AID 504792); format: functional
# Genome polyprotein = Genome polyprotein (dengue virus type 2, UniProt P29990); assay: Dengue-2 NS5 methyltransferase inhibitors, primary screen, biochemical, confirmation dose response (AID 588689); format: functional
# Vero = assay: cells; format: functional, cell-based; conditions: Chlorocebus sabaeus
# cells [11] = format: functional, cell-based
# cells [12] = format: functional, cell-based; remark: listed apart in the source
# [13] = target: Photoreceptor-specific nuclear receptor (Homo sapiens, UniProt Q9Y5X4); format: functional, cell-based;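 note: CHO-S cells with Gal4-NCOR and VP16-NR2E3 two-hybrid luciferase reporter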
# [14] = target: T4, Endoribonuclease toxin MazF (Escherichia coli K-12, UniProt P0AE70); assay: fluorescent RNA oligo signal without MazF, dose response, counter-screen for MazEF activator project, biochemical, fluorescence, single-stranded RNase substrate (AID 588502); format: functional
# T4 sequence (P0AE70 whole entry): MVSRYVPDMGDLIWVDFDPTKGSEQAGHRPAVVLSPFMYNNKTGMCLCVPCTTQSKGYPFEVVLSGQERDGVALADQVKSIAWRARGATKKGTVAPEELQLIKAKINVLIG
# [15] = target: T4, Endoribonuclease toxin MazF; assay: MazF toxin RNase activators, dose response, biochemical, fluorescence, single-stranded RNA substrate, uHTS hits (AID 588481); format: functional
# [16] = target: Induced myeloid leukemia cell differentiation protein Mcl-1 (Homo sapiens, UniProt Q07820); format: functional
# INS1 = assay: beta cell apoptosis inhibitors, cytokine rescue, dose response, luminescence, retest (AID 449756); format: functional, cell-based; conditions: Rattus norvegicus;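 note: cell death triggered by IL-1 beta plus TNF-alpha plus IFN-gamma mixture; protective hits raise ATP signal compared with cytokine alone wells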
# Beta Lactamase = Beta Lactamase (Pseudomonas aeruginosa, UniProt Q932Y6); assay: beta-lactamase reporter inhibitor potency, dose response, artefact control for TLR9-MyD88 binding inhibitor project, BLA reporter cells, FRET fluorescence (AID 588341); format: cell-based;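 note: cell based assay in CHO-K1 cells stably expressing beta-lactamase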
# H9c2 = assay: cells; format: functional, cell-based; conditions: Rattus norvegicus, H9c2, Myocardium;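 note: confirmatory concentration-response retest of ultra-high-throughput screening hits for modulation of myocardial damage; cell death induced by hydrogen peroxide oxidative stress; compound pretreatment for 60 min then peroxide exposure for 2 h; potency is for protecting the cells against peroxide damage rather than for killing them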
# CHO = assay: cytotoxicity in TLR9-MyD88 CHO cells, dose response, cytotoxicity control for TLR9-MyD88 binding inhibitor project, cell-based, luminescence (AID 588339); format: functional, hamster; conditions: Cricetulus griseus;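 note: CHO cells stably coexpressing TLR9 and MyD88 fusions from primary screen; compound exposure lasted 48 hours before viability readout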
# [17] = target: 26S proteasome non-ATPase regulatory subunit 14 (Homo sapiens, UniProt O00487); assay: inhibition of proteasome subunit RPN11 – biochemical, fluorescence polarization, uHTS hits, confirmation (AID 602368); format: functional
# Prothrombin = Prothrombin (Bos taurus, UniProt P00735); assay: thrombin inhibition, dose response, biochemical, fluorescence polarization, uHTS hits (AID 602369); format: functional
# [18] = target: 72 kDa type IV collagenase (Homo sapiens, UniProt P08253); assay: Dose Response validation of uHTS RPN11 inhibitor hits using a MMP-2 Fluorescence assay.; format: functional
# Streptococcus = assay: Group A Streptococcus viability loss, dose response, counter-screen for streptokinase expression inhibitor project, luminescence, BacTiterGlo (AID 1915); format: functional, organism-based;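 note: potency for reduction of bacterial viability or growth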
# [19] = system: Streptococcus sp. 'group A'; assay: growth inhibition of control SK(-) GAS strain, dose response, counter-screen for streptokinase expression inhibitor project, luminescence, kanamycin, BacTiterGlo, confirmation (AID 1900); format: functional, organism-based
# [20] = miR-122 activators in hepatoma reporter cells, dose response, cell-based, Huh7 psiCHECK-miR122, Renilla luciferase, cherry-picked (AID 651956); format: functional;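 note: huh7 hepatoma cells stably carrying a psiCHECK-2 miR-122 sensor plasmid; renilla luciferase signal reporting endogenous miR-122 activity after 48 h compound exposure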
# Estrogen receptor = target: T5, Estrogen receptor (Homo sapiens, UniProt P03372);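 note: potency for inhibiting coactivator peptide recruitment to the receptor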
# T5 sequence (P03372 whole entry): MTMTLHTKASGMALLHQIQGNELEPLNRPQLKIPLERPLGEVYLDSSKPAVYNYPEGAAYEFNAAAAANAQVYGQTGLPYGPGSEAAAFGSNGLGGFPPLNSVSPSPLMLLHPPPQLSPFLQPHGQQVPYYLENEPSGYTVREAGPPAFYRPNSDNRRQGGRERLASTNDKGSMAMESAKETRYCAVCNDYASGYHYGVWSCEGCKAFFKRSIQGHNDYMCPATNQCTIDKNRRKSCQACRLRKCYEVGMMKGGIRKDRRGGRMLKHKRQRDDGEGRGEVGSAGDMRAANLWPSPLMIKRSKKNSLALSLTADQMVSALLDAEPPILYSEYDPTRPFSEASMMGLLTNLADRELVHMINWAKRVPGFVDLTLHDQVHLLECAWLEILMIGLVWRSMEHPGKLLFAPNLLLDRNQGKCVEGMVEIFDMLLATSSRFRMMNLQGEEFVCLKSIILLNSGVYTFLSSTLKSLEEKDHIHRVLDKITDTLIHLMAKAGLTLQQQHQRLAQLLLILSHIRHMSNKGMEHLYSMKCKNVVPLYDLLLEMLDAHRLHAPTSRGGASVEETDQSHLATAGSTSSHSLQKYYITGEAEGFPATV
smiles,measurement,setting,value
O=C(Cc1ccc(Br)cc1)Nc1cccc(S(=O)(=O)N2CCOCC2)c1,IC50,[1],7 µM (active)
same,IC50,[2],3.47 µM (active)
same,IC50,[3],82.3 µM (inactive)
CCOc1ccc(-n2c(-c3ccc(Cl)cc3)c[n+]3c2SCC3)cc1,IC50,Protein Wnt-3a,1.33 µM (active)
same,EC50,[4],0.86 µM (active)
same,EC50,[5],5.18 µM (active)
Cc1cc(C)c(NC(=O)/C(=C/c2ccccc2)c2ccccc2)c(C)c1,EC50,[6],> 53 µM (inactive)
same,IC50,[7],10.4 µM (active)
same,IC50,[8],> 50 µM (not active)
same,IC50,[9],> 20 µM (inactive)
O=C(COc1cccc2ccccc12)Nc1ccc(Cl)cc1C(=O)O,IC50,[10],52.6 µM (inactive)
same,IC50,Genome polyprotein,37.7 µM (active)
same,IC50,Vero,> 25 µM (active)
same,EC50,cells [11],> 350 µM (not active)
same,EC50,cells [12],> 350 µM (not active)
same,IC50,[13],5.31 µM (active)
Cc1nc(SCC(=O)c2cc3ccccc3oc2=O)c(C#N)c(-c2cccs2)c1C(=O)Nc1ccccc1,EC50,[14],> 99 µM (inactive)
same,EC50,[15],> 99 µM (inactive)
O=C(Nc1ccc(C(=O)O)cc1)/C(=C\C=C\c1ccccc1)NC(=O)c1ccc(Br)cc1,IC50,[1],11.5 µM (inactive)
same,IC50,[2],29.6 µM (inactive)
same,IC50,[3],83.3 µM (inactive)
COc1ccc(-c2ccc(/C=C3/C(=N)N4C=CSC4=NC3=O)o2)c([N+](=O)[O-])c1,IC50,[16],1.52 µM (active)
same,EC50,[14],> 99 µM (inactive)
same,EC50,[15],19.6 µM (active)
Cc1sc2ncnc(NCc3cccs3)c2c1C,AC50,INS1,4.79 µM (active)
same,IC50,Protein Wnt-3a,1.81 µM (active)
COc1cc2oc3cc(C#Cc4ccc(N)cc4)ccc3c(=O)c2cc1OC,IC50,Beta Lactamase,3.6 µM (active)
same,IC50,H9c2,> 79 µM (inactive)
same,IC50,CHO,> 49.7 µM (inactive)
O=C(NCc1ccc(F)cc1)c1cccc2c1C(=O)c1ccc(N3CCOCC3)cc1S2(=O)=O,IC50,[17],16.6 µM (active)
same,IC50,Prothrombin,24.1 µM (active)
same,IC50,[18],> 100 µM (inactive)
Cc1noc(C)c1CSCc1ccc(Cl)cc1,EC50,[6],> 53 µM (inactive)
same,IC50,[7],35.6 µM (active)
same,IC50,[9],> 20 µM (inactive)
CO/N=C(/C(=O)N[C@@H]1C(=O)N2C(C(=O)O)=CCS[C@H]12)c1cnc(N)s1,IC50,[17],1.33 µM (active)
same,EC50,Streptococcus,< 0.06 µM (active)
same,EC50,[19],< 0.06 µM (active)
same,IC50,Prothrombin,54.1 µM (active)
same,IC50,[18],0.122 µM (active)
C[C@@H]1CN([C@@H](C)CO)S(=O)(=O)c2ccc(C3=CCCCC3)cc2O[C@@H]1CN(C)C(=O)Cc1ccncc1,AC50,[20],6.22 µM (active)
Cc1c(/C=N/n2cnnc2)c2ccccc2n1CCOc1ccc(Cl)cc1,IC50,Estrogen receptor,> 50 µM (not active)
same,EC50,[14],> 99 µM (inactive)
same,EC50,[15],> 99 µM (inactive)

# From ChEMBL document CHEMBL1201862, “PubChem BioAssay data set” (2004)
